# Results: PubChem BioAssay (NCI)
#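 Compound exposure: 48 hours, 5 concentrations, 96-well plates. TGI: total growth inhibition.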
# Tests used:
# Test in all cases: NCI anticancer screen, dose series, 48 h
# MOLT-4 leukemia = system: MOLT-4 leukemia
# EKVX NSCLC = system: EKVX NSCLC
# IGROV1 ovarian = system: IGROV1 ovarian
# SNB-19 CNS = system: SNB-19 CNS
# HOP-62 NSCLC = system: HOP-62 NSCLC
# HT29 colon = system: HT29 colon
# NCI/ADR-RES ovarian = system: NCI/ADR-RES ovarian
# SF-295 CNS = system: SF-295 CNS
# MDA-N = system: MDA-N
# T-47D breast = system: T-47D breast
# MALME-3M melanoma = system: MALME-3M melanoma
# SF-539 CNS = system: SF-539 CNS
# 786-0 renal = system: 786-0 renal
# NCI-H226 lung = system: NCI-H226 lung
# DU-145 prostate = system: DU-145 prostate
# NCI-H460 lung = system: NCI-H460 lung
# UO-31 renal = system: UO-31 renal
# SW-620 colon = system: SW-620 colon
# HCT-116 colon = system: HCT-116 colon
# ACHN renal = system: ACHN renal
# SR leukemia = system: SR leukemia
# CCRF-CEM leukemia = system: CCRF-CEM leukemia
# LOX IMVI melanoma = system: LOX IMVI melanoma
# SNB-75 CNS = system: SNB-75 CNS
# RPMI-8226 leukemia = system: RPMI-8226 leukemia
# OVCAR-3 ovarian = system: OVCAR-3 ovarian
# OVCAR-8 ovarian = system: OVCAR-8 ovarian
# MDA-MB-435 = system: MDA-MB-435
# HL-60(TB) leukemia = system: HL-60(TB) leukemia
# SK-MEL-5 melanoma = system: SK-MEL-5 melanoma
# M14 melanoma = system: M14 melanoma
# MCF7 breast = system: MCF7 breast
# BT-549 breast = system: BT-549 breast
# HCT-15 colon = system: HCT-15 colon
# UACC-62 melanoma = system: UACC-62 melanoma
# MDA-MB-231 breast = system: MDA-MB-231 breast
# K-562 leukemia = system: K-562 leukemia
# OVCAR-4 ovarian = system: OVCAR-4 ovarian
# U251 CNS = system: U251 CNS
# HCC-2998 colon = system: HCC-2998 colon
# TK-10 renal = system: TK-10 renal
# PC-3 prostate = system: PC-3 prostate
# OVCAR-5 ovarian = system: OVCAR-5 ovarian
# RXF 393 renal = system: RXF 393 renal
# NCI-H23 lung = system: NCI-H23 lung
# SK-MEL-2 melanoma = system: SK-MEL-2 melanoma
# SF-268 CNS = system: SF-268 CNS
# SN12C renal = system: SN12C renal
# SK-MEL-28 melanoma = system: SK-MEL-28 melanoma
# UACC-257 melanoma = system: UACC-257 melanoma
# COLO 205 colon = system: COLO 205 colon
# HOP-92 NSCLC = system: HOP-92 NSCLC
# NCI-H522 lung = system: NCI-H522 lung
# KM12 colon = system: KM12 colon
# CAKI-1 renal = system: CAKI-1 renal
# SK-OV-3 ovarian = system: SK-OV-3 ovarian
# HS 578T breast = system: HS 578T breast
# A549 NSCLC = system: A549 NSCLC
# A498 renal = system: A498 renal
compound,measurement,setting,value
O=C1CC(c2ccccc2)C2(C(=O)NC(=S)NC2=O)C(c2ccccc2)C1 (centres undefined),TGI,MOLT-4 leukemia,> 75 µM
same,TGI,EKVX NSCLC,> 75 µM
same,TGI,IGROV1 ovarian,> 75 µM
same,TGI,SNB-19 CNS,> 75 µM
same,TGI,HOP-62 NSCLC,> 75 µM
same,TGI,HT29 colon,> 75 µM
same,TGI,NCI/ADR-RES ovarian,> 75 µM
same,TGI,SF-295 CNS,> 75 µM
same,TGI,MDA-N,> 75 µM
same,TGI,T-47D breast,> 75 µM
same,TGI,MALME-3M melanoma,> 75 µM
same,TGI,SF-539 CNS,> 75 µM
same,TGI,786-0 renal,> 75 µM
same,TGI,NCI-H226 lung,> 75 µM
same,TGI,DU-145 prostate,> 75 µM
same,TGI,NCI-H460 lung,> 75 µM
same,TGI,UO-31 renal,> 75 µM
same,TGI,SW-620 colon,> 75 µM
same,TGI,HCT-116 colon,> 75 µM
same,TGI,ACHN renal,> 75 µM
same,TGI,SR leukemia,> 75 µM
same,TGI,CCRF-CEM leukemia,> 75 µM
same,TGI,LOX IMVI melanoma,> 75 µM
same,TGI,SNB-75 CNS,> 75 µM
same,TGI,RPMI-8226 leukemia,73.3 µM
same,TGI,OVCAR-3 ovarian,> 75 µM
same,TGI,OVCAR-8 ovarian,> 75 µM
same,TGI,MDA-MB-435,> 75 µM
same,TGI,HL-60(TB) leukemia,> 75 µM
same,TGI,SK-MEL-5 melanoma,> 75 µM
same,TGI,M14 melanoma,> 75 µM
same,TGI,MCF7 breast,> 75 µM
same,TGI,BT-549 breast,> 75 µM
same,TGI,HCT-15 colon,> 75 µM
same,TGI,UACC-62 melanoma,> 75 µM
same,TGI,MDA-MB-231 breast,> 75 µM
same,TGI,K-562 leukemia,> 75 µM
same,TGI,OVCAR-4 ovarian,> 75 µM
same,TGI,U251 CNS,> 75 µM
same,TGI,HCC-2998 colon,> 75 µM
same,TGI,TK-10 renal,> 75 µM
same,TGI,PC-3 prostate,> 75 µM
same,TGI,OVCAR-5 ovarian,> 75 µM
same,TGI,RXF 393 renal,> 75 µM
same,TGI,NCI-H23 lung,> 75 µM
same,TGI,SK-MEL-2 melanoma,> 75 µM
same,TGI,SF-268 CNS,> 75 µM
same,TGI,SN12C renal,> 75 µM
same,TGI,SK-MEL-28 melanoma,> 75 µM
same,TGI,UACC-257 melanoma,> 75 µM
same,TGI,COLO 205 colon,> 75 µM
same,TGI,HOP-92 NSCLC,> 75 µM
same,TGI,NCI-H522 lung,> 75 µM
same,TGI,KM12 colon,> 75 µM
same,TGI,CAKI-1 renal,> 75 µM
OC1(c2ccc(-c3ccccc3)cc2)c2ccccc2C2=NCCN21 (centres undefined),TGI,MOLT-4 leukemia,> 100 µM
same,TGI,SNB-19 CNS,38.3 µM
same,TGI,HOP-62 NSCLC,43.5 µM
same,TGI,HT29 colon,50.3 µM
same,TGI,NCI/ADR-RES ovarian,> 100 µM
same,TGI,SF-295 CNS,> 100 µM
same,TGI,MDA-N,> 100 µM
same,TGI,T-47D breast,> 100 µM
same,TGI,786-0 renal,33.1 µM
same,TGI,NCI-H226 lung,62 µM
same,TGI,DU-145 prostate,> 100 µM
same,TGI,NCI-H460 lung,> 100 µM
same,TGI,UO-31 renal,> 100 µM
same,TGI,SW-620 colon,> 100 µM
same,TGI,HCT-116 colon,> 100 µM
same,TGI,ACHN renal,43.9 µM
same,TGI,SR leukemia,> 100 µM
same,TGI,CCRF-CEM leukemia,> 100 µM
same,TGI,LOX IMVI melanoma,> 100 µM
same,TGI,SNB-75 CNS,48.9 µM
same,TGI,RPMI-8226 leukemia,> 100 µM
same,TGI,OVCAR-3 ovarian,63.6 µM
same,TGI,SK-OV-3 ovarian,> 100 µM
same,TGI,MDA-MB-435,> 100 µM
same,TGI,HL-60(TB) leukemia,> 100 µM
same,TGI,SK-MEL-5 melanoma,43.6 µM
same,TGI,HS 578T breast,75.4 µM
same,TGI,BT-549 breast,> 100 µM
same,TGI,HCT-15 colon,> 100 µM
same,TGI,UACC-62 melanoma,53.1 µM
same,TGI,MDA-MB-231 breast,> 100 µM
same,TGI,K-562 leukemia,> 100 µM
same,TGI,OVCAR-4 ovarian,> 100 µM
same,TGI,U251 CNS,> 100 µM
same,TGI,HCC-2998 colon,40.4 µM
same,TGI,TK-10 renal,> 100 µM
same,TGI,PC-3 prostate,62.9 µM
same,TGI,A549 NSCLC,> 100 µM
same,TGI,NCI-H23 lung,52.6 µM
same,TGI,SK-MEL-2 melanoma,24.9 µM
same,TGI,SF-268 CNS,> 100 µM
same,TGI,SN12C renal,> 100 µM
same,TGI,SK-MEL-28 melanoma,80.6 µM
same,TGI,UACC-257 melanoma,> 100 µM
same,TGI,COLO 205 colon,48.3 µM
same,TGI,HOP-92 NSCLC,> 100 µM
same,TGI,KM12 colon,54.4 µM
same,TGI,A498 renal,> 100 µM
same,TGI,CAKI-1 renal,> 100 µM
